In US10828265B2, “Formulations of propranolol and analogs as an amorphous melt or ionic liquid for transdermal drug delivery” (The Regents of the University of California, priority 2016, dated 2020):
Counter-ions that a name gives are not always drawn. Like-named read-outs stand apart in the source and are kept apart here.

How the values were obtained:
[1] = test system: Mat Tek Epiderm FT human skin equivalent tissues; conditions: for Dose-normalized skin irritation potential, fold lower than 0.1 M PFB EtOH formulation: interleukin-1α release divided by applied dose, neat melt, FIG. 8A; for skin irritation potential normalized to delivered dose in acceptor, fold lower than 0.1 M PFB EtOH formulation: interleukin-1α release divided by delivered dose in acceptor compartment, FIG. 8B
Method: Evaluation was conducted using human skin equivalent tissues (Epiderm™) with a human interleukin-1α ELISA kit. Interleukin-1α release has been previously established as an indicator for skin irritation and affords evaluating irritation without requiring removal of the test formulation from skin tissues, a potentially damaging process to the tissues when studying viscous formulations. 0.1 M and 0.2 M PFB EtOH formulations, positive control (5% sodium dodecyl sulfate (SDS) in PBS), negative control (PBS) and EtOH solvent control were also evaluated.
Skin irritation was assessed by measuring interleukin-1α release from Mat Tek Epiderm FT™ human skin equivalent tissues (MatTek Corporation, Ashland, Mass.). Experiments were performed according to the manufacturer's recommended protocol. Briefly, new media was added immediately before application of formulations. Formulations were applied to the surface of the tissues for 4 hours. After 4 hours, 200 μL of media was collected for interleukin-la analysis. Interleukin-la release was quantified using a Human Interleukin-la ELISA Kit (Pierce Biotechnology Inc., Rockford, Ill.) according to the manufacturer's recommended Protocol. ThermoFisher Scientific. Instructions of Human IL-1α ELISA Kit. Retrieved from https://www.thermofisher.com/order/catalog/product/EH2IL1A (2014). Absorbance of blank (0 pg/mL Interleukin-1α) was subtracted from absorbance of each sample.

[2] = Partition coefficient n-octanol/water (log Po/w); assay type: physicochemical
Method: Lipophilicity of propranolol melts or ionic liquids, measured as partition coefficient n-octanol/water (log Po/w), varied depending on the carbon chain length of the counter species (FIG. 6C). The log Po/w of propranolol melts or ionic liquids ranged from 0.76 to 1.76, and were between −0.41 of PRL:Cl and 3.12 of PFB.
A 250 mL volume of n-octanol was shaken with 25 mL of ddH2O and left overnight to obtain n-octanol saturated with water. A 250 mL volume of ddH2O was shaken with 25 mL of n-octanol and left overnight to obtain water saturated with n-octanol. Ten milliliters of saturated n-octanol was added to each 3H-labeled propranolol melt or ionic liquid (6-10 mg) in a 20-mL scintillation vial followed by stirring until the melt or ionic liquid was dissolved completely. 10 mL saturated water was shaken with 10 mL of the 3H-labeled propranolol melt or ionic liquid solution in octanol for 1 minute, followed by 2 minutes of gentle centrifugation (1000 rpm, 74×g, Allegra X-12R centrifuge, FX6100 rotor, Beckman Coulter, Brea, Calif.) to obtain clean separation of the two layers. […] The partition coefficient n-octanol/water was calculated as the logarithm of the concentration of propranolol in octanol divided by the concentration of propranolol in water.

[3] = Molar conductivity (neat, in water, in n-octanol); assay type: physicochemical; conditions: for molar conductivity in n-octanol: 1.32 mM PRL:C8, 1.24 mM PRL:C5, mean±SD; for molar conductivity in water in comparison to sodium chloride: 25° C. and 37° C., FIGS. 9A and 9B
[4] = neat melt, SD of three measurements in parentheses
Method: Standard deviations of three measurements are provided in parentheses.
Viscosity was measured using 1-mL samples with a LC-ARES Test Station (TA Instruments, New Castle, Del.) and a cone (diameter: 25 mm; angle: 0.1 rad). The cone rotation rate was 10 s^−1 and viscosity was measured three times per sample at 25° C. and 37° C. Differential scanning calorimetry (DSC) was performed with a Q2000 DSC with 50 position autosampler (TA Instruments, New Castle, Del.). Sample size was 9-10 mg, and was weighed in an aluminum hermetic pan. Samples were heated from room temperature to 120° C. under N2 atmosphere followed by cooling to […] and subsequent heating back to 120° C. with a ramp rate of 10° C. per minute.

[5] = porcine skin, 24 hours, 37° C.
Method: Franz diffusion cells were used to assess the skin transport of propranolol melts or ionic liquids using a previously established protocol described in Karande, P., et al., Discovery of transdermal penetration enhancers by high-throughput screening. […] Briefly, the acceptor chamber was filled with degas sed PBS or 4% bovine serum albumin in PBS and a small stir bar was added. Thawed porcine skin was clamped in place between the acceptor and donor chambers with the SC facing up. Care was taken to ensure no air bubbles resided in the acceptor chamber, and skin was stretched to minimize the presence of furrows. PFB solution in either IPM or EtOH was spiked with the 3H-labeled propranolol free base solution to a final concentration of 10 μCi/mL. Alternatively, 3H-labeled propranolol melts or ionic liquids were used as donor formulations. […] Samples from each tissue layer and acceptor solution were dissolved in Solvable (Perkin Elmer, Waltham, Mass.) overnight, and the amount of propranolol was measured using a scintillation counter and standard solution of radiolabeled donors. […] Furthermore, permeability (Kp) was calculated using the following equation, where Jss is the steady-state flux calculated as the slope of the linear portion of the plot of the cumulative amount permeated per unit area versus time, and C is propranolol concentration in donor. […]

[6] = Solubility in organic and aqueous solvents; assay type: physicochemical

Compound | partition coefficient n-octanol/water (log Po/w) [2] | molar conductivity in n-octanol ([3]; 25° C.) [S cm^2/mol] | molar conductivity in n-octanol ([3]; 37° C.) [S cm^2/mol] | molar conductivity in water in comparison to sodium chloride ([3]; water) | Propranolol Melt Viscosity ([4]; 25° C.) | Propranolol Melt Viscosity ([4]; 37° C.) | Dose-normalized skin irritation potential, fold lower than 0.1 M PFB EtOH formulation ([1]; 4 hours) [fold] | skin irritation potential normalized to delivered dose in acceptor, fold lower than 0.1 M PFB EtOH formulation [1] [fold] | also measured
CCCCCCCCCCCCOS(=O)(=O)[O-].[Na+] [5% SDS in PBS, Sodium dodecyl sulfate, reference compound] | – | – | – | – | – | – | – | – | Interleukin-1α release (irritation) ([1]; 4 hours, FIG. 14A): highest amount of irritation
CC(C)NCC(O)COc1cccc2ccccc12 (stereo not shown) [PFB, propranolol free base] | 3.12 | – | – | – | – | – | – | – | –
CC(C)NCC(O)COc1cccc2ccccc12.CCCCCOC(=O)CC(C(=O)OCCCCC)S(=O)(=O)O (stereo not shown) [PRL:C5, propranolol diamyl sulfosuccinate] | – | 0.35±0.01 | 0.40±0.01 | much lower molar conductivity | 59.5 (1.6) Pa s | 14.7 (0.2) Pa s | 1.7 | 3.7 | –
CC(C)NCC(O)COc1cccc2ccccc12.CCCCCCOC(=O)CC(C(=O)OCCCCCC)S(=O)(=O)O (stereo not shown) [PRL:C6, propranolol dihexyl sulfosuccinate] | – | – | – | – | 1889.4 (325.2) Pa s | 180.9 (10.8) Pa s | – | – | –
CC(C)NCC(O)COc1cccc2ccccc12.CCCCC(CC)COC(=O)CC(C(=O)OCC(CC)CCCC)S(=O)(=O)O (stereo not shown) [PRL:C8, propranolol dioctyl sulfosuccinate] | – | 0.49±0.01 | 0.51±0.01 | much lower molar conductivity | 70.4 (0.9) Pa s | 16.9 (0.1) Pa s | 11 | 40 | molar conductivity in water, fold lower than PRL:C5 ([3]; water, 37° C., concentrations >1 mM): ~10 fold; amount of propranolol delivered into skin layers and acceptor [5]: delivery enhancement into each layer; skin permeability (flux normalized by applied dose) [5]: highest permeability among analog melts or ionic liquids; difference in skin irritation potential between PRL:C8 and PRL:C5 ([1]; dose-normalized, FIGS. 8A and 8B): ~10 fold
CC(C)NCC(O)COc1cccc2ccccc12 (stereo not shown) [PRL:Cl, propranolol hydrochloride] | −0.41 | – | – | – | – | – | – | – | solubility ([6]; methanol, organic solvent or mixture, read-out: solubility in methanol): 510 mM; solubility ([6]; water, read-out: solubility in water): 170 mM
